PubChem BioAssay (NCI)
Where “and” joins values, the source holds several entries; their conditions need not be identical. Identical values can stand only once.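 Exposure lasted 48 hours, with cells grown in 96-well plates and compounds tested at five concentrations. GI50 is the concentration that inhibits growth by half. TGI: total growth inhibition.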

Experiments:
Experiment in all cases: NCI anticancer screen, dose series, 48 h
MCF7 breast = system: MCF7 breast
SK-OV-3 ovarian = system: SK-OV-3 ovarian
OVCAR-5 ovarian = system: OVCAR-5 ovarian
COLO 205 colon = system: COLO 205 colon
A549 NSCLC = system: A549 NSCLC
HL-60(TB) leukemia = system: HL-60(TB) leukemia
HOP-62 NSCLC = system: HOP-62 NSCLC
SK-MEL-5 melanoma = system: SK-MEL-5 melanoma
HCT-116 colon = system: HCT-116 colon
DU-145 prostate = system: DU-145 prostate

Structure (SMILES) | GI50 (MCF7 breast) [µM] | TGI (MCF7 breast) [µM] | GI50 (SK-OV-3 ovarian) | TGI (SK-OV-3 ovarian) | GI50 (OVCAR-5 ovarian) [µM] | TGI (OVCAR-5 ovarian) | GI50 (COLO 205 colon) | TGI (COLO 205 colon) | GI50 (A549 NSCLC) | TGI (A549 NSCLC) [µM] | GI50 (HL-60(TB) leukemia) [µM] | TGI (HL-60(TB) leukemia) | GI50 (HOP-62 NSCLC) [µM] | TGI (HOP-62 NSCLC) | GI50 (SK-MEL-5 melanoma) [µM] | TGI (SK-MEL-5 melanoma) | GI50 (HCT-116 colon) | TGI (HCT-116 colon) | GI50 (DU-145 prostate) [µM] | TGI (DU-145 prostate) [µM]
Oc1ccccc1/C=N\NC(=S)Nc1ccc(F)cc1 | 0.888 | > 100 | 2.11 µM | 76.5 µM | 4.63 | > 100 µM | 4.8 µM | > 43 µM | 2.33 µM | > 100 | 0.906 | 6.22 µM | 0.832 | > 65 µM | 1.15 | 7.15 µM | 0.403 µM | > 100 µM | 1.97 | > 100
O=C(NCCN1CCOCC1)c1cc2c(Oc3ccc(NC(=O)C4(C(=O)Nc5ccc(F)cc5)CC4)cc3)ccnc2[nH]1 | 2.36 | 33.2 | 15.1 µM | > 100 µM | 9.94 | > 100 µM | 4.48 µM | > 48.7 µM | 4.9 µM | 48.6 | 15.2 | 47 µM | 3.22 | 31.5 µM | 3.03 | 12.4 µM | 8.78 µM | > 100 µM | 10.6 | > 100
C=C(CN1CCN(c2cc(C(F)(F)F)cc(C(F)(F)F)c2)CC1)c1ccc(C(=O)Nc2ccccc2N)cc1 | 0.839 | 21.8 | 25.7 µM | > 100 µM | 54.6 | > 100 µM | 7.11 µM | 52.6 µM | 19 µM | > 100 | 1.05 | > 100 µM | 16.2 | > 100 µM | 2.28 | 10.8 µM | 3.67 µM | > 100 µM | 5.4 | > 100
COc1cccc(/C=C\C(=O)c2ccccc2)c1 | 2.57 | 18.6 | 15.9 µM | 32.2 µM | 9.84 | 41.2 µM | 7.82 µM | 40.8 µM | 15 µM | 40.5 | 5.98 | > 100 µM | 20.2 | 42.1 µM | 9.4 | 24.8 µM | 2.66 µM | 8.27 µM | 4.73 | 20.5
COc1cc2c(cc1O)CCN[C@@]21CS[C@H]2c3c(OC(C)=O)c(C)c4c(c3C(COC1=O)N1C2C2NC(Cc3cc(C)c(OC)c(O)c32)[C@@H]1O)OCO4 (stereo partly drawn) |  | 10.5 | 4.5 ng/mL | 10.9 µM and 1.47 µg/mL |  | 14.6 µM and 7.3e-07 µg/mL and 0.0045 µg/mL | 4.5 ng/mL | < 10 nM and 1.9e-07 µg/mL and 0.0045 µg/mL | 0.000368 ng/mL | 10.4 |  | > 100 µM and 8.2e-07 µg/mL |  | < 10 nM and 3.8e-07 µg/mL and 0.0045 µg/mL |  | < 10 nM and 2.8e-07 µg/mL and 0.0045 µg/mL | 4.5 ng/mL | 11.9 µM and 4.86 µg/mL |  | 11
CC[C@H](C)[C@H](NC(=O)CN(C)C)C(=O)N(C)[C@H](C[C@@H](OC(C)=O)c1nc(C(=O)NC23C4C5C2C2C3C4C52C(=O)OC)cs1)C(C)C (stereo partly drawn) | 0.134 | > 33.2 | 4.15 µM | > 33.2 µM | > 10.4 | > 33.2 µM | 0.247 µM | 5.53 µM | 2.12 µM | > 33.2 | 0.0777 | 0.242 µM |  | > 33.2 µM | 0.299 | 6.75 µM | 0.201 µM | > 33.2 µM | 0.176 | > 33.2
